Experiment [1] relates to E. coli (MCR-1). Format: cell-based, Escherichia coli. Particulars: microbroth dilution per CLSI, MHB, 18 h at 37 °C, visual inspection, three technical replicates, E. coli 25922 carrying mcr-1. In outline:
(§1)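 MIC taken as the lowest concentration with no visible growth after 18 h, 37 °C, shaking, three technical replicates. Peptides were serially diluted in MHB and received cells from TSB cultures at OD600 ~0.5, diluted to 2 × 10^5 CFU/mL (kanamycin selection for the mcr-1 E. coli), following CLSI guidelines.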
(Broth dilution looks for growth in wells or tubes with falling amounts of substance.)

The test system of experiment [2] is E. coli ATCC 25922. Format: cell-based, Escherichia coli. The settings on record: for Antibacterial activity (MIC) E. coli ATCC 25922: microbroth dilution per CLSI, MHB, 18 h at 37 °C, visual inspection, three technical replicates; for MIC (µg/mL) against E. coli (ATCC 25922): (Supplement 2). In outline: as §1
The subject of experiment [3] is K. pneumoniae ATCC 13883. Format: cell-based, Klebsiella pneumoniae. Particulars: microbroth dilution per CLSI, MHB, 18 h at 37 °C, visual inspection, three technical replicates. In outline: as §1
Experiment [4] has as its system A. baumannii ATCC 17961. Format: cell-based, Acinetobacter baumannii. Particulars: microbroth dilution per CLSI, MHB, 18 h at 37 °C, visual inspection, three technical replicates. In outline: as §1
For experiment [5], the system named is P. aeruginosa PAO1. Format: cell-based, Pseudomonas aeruginosa. Particulars: microbroth dilution per CLSI, MHB, 18 h at 37 °C, visual inspection, three technical replicates. A digest of the protocol: as §1
Experiment [6] concerns S. aureus USA300. Format: cell-based, Staphylococcus aureus. Particulars: microbroth dilution per CLSI, MHB, 18 h at 37 °C, visual inspection, three technical replicates. In outline: as §1
Experiment [7] concerns panel of Gram-negative and Gram-positive ESKAPE pathogens. Format: cell-based. The settings on record: for fold improvement in activity with respect to C-terminal acids 4 and 5: MIC of C-terminal amide vs C-terminal acid; for fold reduction in activity compared to parent peptides: MIC vs brevicidine / laterocidine; for MIC values, summarised over strains: against most strains of the panel. The method, then: Linear laterocidine (LL-OH, 4) and linear brevicidine (LB-OH, 5) were first synthesized by Fmoc SPPS, starting from 2-chlorotrityl (2-CT) chloride resin. The antibacterial activity of these peptides was then compared to brevicidine (1) and laterocidine (2) using minimum inhibitory concentration (MIC)/microbroth dilution assays (Table 1). The MICs of all peptides were determined against a panel of Gram-negative and Gram-positive ESKAPE pathogens. Additionally, a strain of E. coli carrying the mcr-1 gene was included in the panel. The mcr-1 gene is a transferrable plasmid that confers resistance against colistin, a last-resort antibiotic for Gram-negative infections, by reducing the overall negative charge of lipopolysaccharide (LPS) through modification of lipid A with phosphoethanolamine. The propensity for cationic antibiotics to bind to the cell membrane is therefore reduced. This gene has been observed in more than 27 bacterial species over six continents.[26] The spread of the mcr-1 gene could render colistin ineffectual; therefore, novel antibacterials are urgently required to overcome this form of resistance.
All minimum inhibitory concentrations (MICs) were determined according to Clinical and Laboratory Standards Institute (CLSI) guidelines. Blood agar plates were inoculated with glycerol stocks of E. coli ATCC 25922, K. pneumoniae ATCC 13883, A. baumannii ATCC 17961, P. aeruginosa PAO1, and S. aureus USA300. The inoculated agar plates were then incubated for 16 h at 37 °C. Individually grown colonies were subsequently used to inoculate 5 mL aliquots of TSB that were then incubated at 37 °C with shaking at 220 rpm. E. coli 25922 MCR-1 glycerol stock was used to inoculate 5 mL of TSB supplemented with kanamycin that was then incubated for 16 h at 37 °C with shaking at 220 rpm. The next day the culture was diluted 100-fold in TSB supplemented with kanamycin and incubated at 37 °C with shaking at 220 rpm. In parallel, the lipopeptide antibiotics DMSO stocks to be assessed were serially diluted with MHB in polypropylene 96-well plates (50 μL in each well). Colistin sulfate stocks were dissolved in water before being diluted with MHB. Aliquots of the inoculated TSB were incubated until an OD600 of around 0.5 was reached. The bacterial suspensions were then diluted with MHB (2 × 10^5 CFU/mL) and added to the microplates containing the test compounds (50 μL to each well). The well plates were sealed with an adhesive membrane and after 18 h of incubation at 37 °C with shaking at 600 rpm, the wells were visually inspected for bacterial growth. MIC values reported are based on three technical replicates and defined as the lowest concentration of the compound that prevented visible growth of bacteria.

In brackets after ≈: the same amount, converted by molar mass. Where a SMILES comes first, the peptide text is derived from it. [ ]: non-standard residue; d: D form. The star is where a group is joined. ξ: configuration not given here. Octanoyl(7-Me) = CC(C)CCCCCC(=O)*; Hexanoyl(4ξ-Me) = CCC(C)CCC(=O)*; dOrn = NCCC[C@@H](N)C(=O)O; Orn = NCCC[C@H](N)C(=O)O; Dap = NC[C@H](N)C(=O)O; Alloc = C=CCOC(=O)*; OAll = C=CCO*

The record followed here is paper PMC10150354, “Linearization of the Brevicidine and Laterocidine Lipopeptides Yields Analogues That Retain Full Antibacterial Activity” (Journal of Medicinal Chemistry, 2023).

For `CCC(C)CCC(=O)N[C@H](CC(N)=O)C(=O)N[C@H](Cc1ccc(O)cc1)C(=O)N[C@H](Cc1c[nH]c2ccccc12)C(=O)N[C@H](CCCN)C(=O)N[C@@H](CCCN)C(=O)NCC(=O)N[C@H](CCCN)C(=O)N[C@@H](Cc1c[nH]c2ccccc12)C(=O)N[C@H](C(=O)N[C@H](C(=O)NCC(=O)N[C@@H](CO)C(N)=O)[C@@H](C)CC)[C@@H](C)O` (stereo partly drawn) [LB-NH2 (7)] ({Hexanoyl(4ξ-Me)}-[dN][dY][dW][dOrn][Orn]G[dOrn]WTIGS-NH2), in experiment [1], the “Antibacterial activity (MIC) E. coli (MCR-1)” value worked out at 16 µg/mL. Besides, the “Antibacterial activity (MIC) E. coli ATCC 25922” value in experiment [2] was found to be 16 µg/mL. Moreover, the “Antibacterial activity (MIC) K. pneumoniae ATCC 13883” value in experiment [3] was determined as 16 µg/mL. Moreover, in experiment [4], the “Antibacterial activity (MIC) A. baumannii ATCC 17961” value was 16 µg/mL. Besides, the “Antibacterial activity (MIC) P. aeruginosa PAO1” value in experiment [5] was 4 µg/mL. The “Antibacterial activity (MIC) S. aureus USA300” value in experiment [6] was over 32 µg/mL. Moreover, in experiment [7], the “fold improvement in activity with respect to C-terminal acids 4 and 5” value is on record as 2 fold; the “fold reduction in activity compared to parent peptides” value is given as 2/4.
Take `C=CCOC(=O)NC[C@H](NC(=O)[C@H](Cc1c[nH]c2ccccc12)NC(=O)[C@@H](CCCN)NC(=O)CNC(=O)[C@H](CCCN)NC(=O)[C@@H](CCCN)NC(=O)[C@@H](Cc1c[nH]c2ccccc12)NC(=O)[C@@H](Cc1ccc(O)cc1)NC(=O)[C@@H](CC(N)=O)NC(=O)CCC(C)CC)C(=O)N[C@H](C(=O)NCC(N)=O)[C@@H](C)CC` (stereo partly drawn) [Δ12LB (Dap[Alloc]9)-NH2 (61)] ({Hexanoyl(4ξ-Me)}-[dN][dY][dW][dOrn][Orn]G[dOrn]W[Dap](Alloc)IG-NH2): in experiment [1], the “Antibacterial activity (MIC) E. coli (MCR-1)” value turned out to be 4 µg/mL. In experiment [2], the “MIC (µg/mL) against E. coli (ATCC 25922)” value was found to be 4 µg/mL (≈ 2.63 µM) and the “Antibacterial activity (MIC) E. coli ATCC 25922” value turned out to be 4 µg/mL. Moreover, the “Antibacterial activity (MIC) K. pneumoniae ATCC 13883” value in experiment [3] came out at 2 µg/mL. Moreover, in experiment [4], the “Antibacterial activity (MIC) A. baumannii ATCC 17961” value came to 2 µg/mL. Moreover, the “Antibacterial activity (MIC) P. aeruginosa PAO1” value in experiment [5] is 4 µg/mL. Further, the “Antibacterial activity (MIC) S. aureus USA300” value in experiment [6] is over 32 µg/mL. Moreover, in experiment [7], the “MIC values, summarised over strains” value is 2 to 4 µg/mL.
Turning to `CCC(C)CCC(=O)N[C@H](CC(N)=O)C(=O)N[C@H](Cc1ccc(O)cc1)C(=O)N[C@H](Cc1c[nH]c2ccccc12)C(=O)N[C@H](CCCN)C(=O)N[C@@H](CCCN)C(=O)NCC(=O)N[C@H](CCCN)C(=O)N[C@@H](Cc1c[nH]c2ccccc12)C(=O)N[C@@H](Cc1ccccc1)C(=O)N[C@H](C(=O)NCC(N)=O)[C@@H](C)CC` (stereo partly drawn) [Δ12LB (Phe9)-NH2 (54)] ({Hexanoyl(4ξ-Me)}-[dN][dY][dW][dOrn][Orn]G[dOrn]WFIG-NH2), the “Antibacterial activity (MIC) E. coli (MCR-1)” value in experiment [1] lay within 2 to 4 µg/mL. Moreover, in experiment [2], the “MIC (µg/mL) against E. coli (ATCC 25922)” value stood at 4 µg/mL (≈ 2.67 µM) and the “Antibacterial activity (MIC) E. coli ATCC 25922” value worked out at 2 µg/mL. Besides, the “Antibacterial activity (MIC) K. pneumoniae ATCC 13883” value in experiment [3] was 2 to 4 µg/mL. In experiment [4], the “Antibacterial activity (MIC) A. baumannii ATCC 17961” value is 4 µg/mL. Further, the “Antibacterial activity (MIC) P. aeruginosa PAO1” value in experiment [5] amounted to 4 µg/mL. In addition, in experiment [6], the “Antibacterial activity (MIC) S. aureus USA300” value was over 32 µg/mL. In experiment [7], the “MIC values, summarised over strains” value was 2 to 4 µg/mL.
On to `CC[C@H](C)[C@H](NC(=O)[C@@H](NC(=O)[C@H](Cc1c[nH]c2ccccc12)NC(=O)[C@@H](CCCN)NC(=O)CNC(=O)[C@H](CCCN)NC(=O)[C@@H](CCCN)NC(=O)[C@@H](Cc1c[nH]c2ccccc12)NC(=O)[C@@H](Cc1ccc(O)cc1)NC(=O)[C@@H](CO)NC(=O)CCCCCC(C)C)[C@@H](C)O)C(=O)N[C@@H](CC(N)=O)C(=O)NCC(=O)NCC(N)=O` [LL-NH2 (6)] ({Octanoyl(7-Me)}-[dS][dY][dW][dOrn][Orn]G[dOrn]WTINGG-NH2), for which the “Antibacterial activity (MIC) E. coli (MCR-1)” value in experiment [1] amounted to 8 µg/mL. Besides, the “Antibacterial activity (MIC) E. coli ATCC 25922” value in experiment [2] is 4 µg/mL. Further, the “Antibacterial activity (MIC) K. pneumoniae ATCC 13883” value in experiment [3] lay in the range of 4 to 8 µg/mL. For the same compound, the “Antibacterial activity (MIC) A. baumannii ATCC 17961” value in experiment [4] amounted to 8 µg/mL. In addition, the “Antibacterial activity (MIC) P. aeruginosa PAO1” value in experiment [5] worked out at 4 µg/mL. The “Antibacterial activity (MIC) S. aureus USA300” value in experiment [6] was over 32 µg/mL. Besides, in experiment [7], the “fold improvement in activity with respect to C-terminal acids 4 and 5” value is recorded as 2 fold; the “fold reduction in activity compared to parent peptides” value is on record as 2/4.
Consider `C=CCOC(=O)CC[C@H](NC(=O)[C@H](Cc1c[nH]c2ccccc12)NC(=O)[C@@H](CCCN)NC(=O)CNC(=O)[C@H](CCCN)NC(=O)[C@@H](CCCN)NC(=O)[C@@H](Cc1c[nH]c2ccccc12)NC(=O)[C@@H](Cc1ccc(O)cc1)NC(=O)[C@@H](CO)NC(=O)CCCCCC(C)C)C(=O)N[C@H](C(=O)N[C@@H](CC(N)=O)C(=O)NCC(=O)NCC(N)=O)[C@@H](C)CC` [LL(Glu[OAll]9)-NH2 (51)] ({Octanoyl(7-Me)}-[dS][dY][dW][dOrn][Orn]G[dOrn]WE(OAll)INGG-NH2), for which, in experiment [1], the “Antibacterial activity (MIC) E. coli (MCR-1)” value came to 16 µg/mL. Further, in experiment [2], the “MIC (µg/mL) against E. coli (ATCC 25922)” value is recorded as 16 µg/mL (≈ 9.47 µM) and the “Antibacterial activity (MIC) E. coli ATCC 25922” value was 16 µg/mL. Moreover, in experiment [3], the “Antibacterial activity (MIC) K. pneumoniae ATCC 13883” value is over 32 µg/mL. The “Antibacterial activity (MIC) A. baumannii ATCC 17961” value in experiment [4] came to 16 µg/mL. Besides, the “Antibacterial activity (MIC) P. aeruginosa PAO1” value in experiment [5] was over 32 µg/mL. Further, the “Antibacterial activity (MIC) S. aureus USA300” value in experiment [6] was over 32 µg/mL.
